System: skin
Experiment: 96 hour patch test of irritancy
Conditions: 0.3% w/v in sterile water
Procedure: A 96 hour patch test was carried out to assess the irritancy or otherwise of Myrica gale oil when applied to the skin. For comparison, a solution of sodium dodecyl sulphate and white soft paraffin were also investigated.

CCCCCCCCCCCCOS(=O)(=O)[O-].[Na+] [Sodium dodecyl sulphate (SDS), Sodium dodecyl sulphate]
Mean Dryness (D): 0.72 | Mean Erythema (E): 4.54 | Mean Irritation (E + D): 5.26
